Data reported in patent US20140342931A1, “METHOD FOR PREDICTING RESPONSE TO ENDOCRINE THERAPY” (PAMGENE B.V., priority 2011, published 2014).

System: Estrogen Receptor alpha (ERα)
Text: Under tamoxifen, a known antagonist of the ERα, this phosphorylation affects the conformation of ERα and changes its orientation to the protein SRC-1. In this example we studied the effect of ERαSer305 phosphorylation on the binding of cofactors in transfected cells and in breast tumor specimens. We used the methods and coregulator peptide array as described in WO 2008/028978 containing 154 coregulator peptides (table 1).
ERαY/C-transfected U2OS cells were stimulated with cAMP to induce PKA-mediated ERα phosphorylation. The serine-to-alanine mutant ERαSer305Ala-Y/C was used as a negative control (FIG. 1).
The effect of PKA activation on peptide binding was also studied under tamoxifen conditions.

| Compound | ERα binding to the control peptide (IDNR13) at saturating tamoxifen concentrations (concentration range up to 10^-5 M, ERα-wt and ERαSer305Ala, with or without cAMP (PKA activation)) | modulation of ERα binding to coregulators (concentration range of estradiol up to 10^−8 M, control peptide IDNR13 (NCOA1_677_700), wild type and Ser305Ala ERα, cAMP stimulated and control cells) |
| --- | --- | --- |
| 4-hydroxy-Tamoxifen [4OH-tamoxifen] | largely blocked |  |
| C[C@]12CC[C@@H]3c4ccc(O)cc4CC[C@H]3[C@@H]1CC[C@@H]2O [estradiol, 17-β-Estradiol] |  | dose dependent modulation |
